For one compound, EC50 results are on record in US20060166236A1, “Allosteric enzyme coupled immunoassay (AECIA)” (priority 2004, published 2006).

For test [1], the target named is T1, potato tuber PPi-PFK (pyrophosphate-dependent fructose-6-phosphate kinase, EC2.7.1.90) (Solanum tuberosum, UniProt P21342+P21343).
T1 construct: Peeled potato tubers (330 g) were homogenized in a blendor; from tissue; host or cells: potato tubers
T1 sequence (P21342 1-616): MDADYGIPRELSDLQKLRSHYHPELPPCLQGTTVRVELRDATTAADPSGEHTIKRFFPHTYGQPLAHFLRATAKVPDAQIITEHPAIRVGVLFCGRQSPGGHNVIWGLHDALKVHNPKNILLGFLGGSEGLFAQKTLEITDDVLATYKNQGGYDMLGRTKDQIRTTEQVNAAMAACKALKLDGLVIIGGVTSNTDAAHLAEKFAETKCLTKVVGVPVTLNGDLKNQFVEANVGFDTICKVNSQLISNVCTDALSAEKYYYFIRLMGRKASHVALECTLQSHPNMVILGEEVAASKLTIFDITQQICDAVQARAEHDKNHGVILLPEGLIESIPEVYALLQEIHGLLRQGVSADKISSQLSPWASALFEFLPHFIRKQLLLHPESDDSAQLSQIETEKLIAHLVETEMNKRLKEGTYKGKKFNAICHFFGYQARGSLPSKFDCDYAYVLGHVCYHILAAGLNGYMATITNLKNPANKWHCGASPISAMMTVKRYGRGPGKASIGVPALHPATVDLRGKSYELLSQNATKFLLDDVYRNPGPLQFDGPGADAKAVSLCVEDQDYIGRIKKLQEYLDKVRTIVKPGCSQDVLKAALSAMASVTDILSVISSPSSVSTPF
T1 sequence (P21343 1-569): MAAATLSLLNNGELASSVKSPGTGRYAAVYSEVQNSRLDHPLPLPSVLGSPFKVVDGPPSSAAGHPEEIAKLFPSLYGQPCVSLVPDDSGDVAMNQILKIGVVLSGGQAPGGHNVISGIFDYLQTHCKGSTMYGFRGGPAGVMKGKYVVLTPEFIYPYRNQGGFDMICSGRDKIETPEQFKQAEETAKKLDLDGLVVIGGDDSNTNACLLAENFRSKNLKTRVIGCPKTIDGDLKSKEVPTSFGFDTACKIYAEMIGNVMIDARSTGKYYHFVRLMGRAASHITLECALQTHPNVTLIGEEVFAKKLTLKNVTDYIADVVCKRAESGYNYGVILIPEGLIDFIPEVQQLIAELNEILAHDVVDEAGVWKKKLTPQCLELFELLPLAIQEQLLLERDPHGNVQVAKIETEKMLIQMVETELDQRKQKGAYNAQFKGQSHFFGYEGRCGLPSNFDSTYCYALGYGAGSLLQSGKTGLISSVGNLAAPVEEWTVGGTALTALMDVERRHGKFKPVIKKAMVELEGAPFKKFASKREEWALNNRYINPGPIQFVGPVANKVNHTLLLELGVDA
Briefly: Stimulation assay of potato tuber PPi-PFK by Fructose 2,6 Pi. The conditions noted are these: in the presence of 1 mM fructose 6-phosphate and 2.5 mM PPi; FIG. 3; read-out: half-maximal effect (activation of potato tuber PPi-PFK). The format is biochemical. Here is the method: Potato tubers PPi-PFK was purified according to the procedure described in Van Schafingen et al., Eur. J. Biochem., 129:191-195 (1982). Peeled potato tubers (330 g) were homogenized in a blendor with 2 volume of ice-cold 20 mM Hepes pH8.2 containing 20 mM potassium acetate and 2 mM dithiothreitol. The homogenate was filtered through cheese cloth. Solid sodium pyrophosphate and 1 mM MgCl2 were added to the filtrate to reach 2 mM and the pH was adjusted to 8.2 at 0° C. The mixture was brought to 59° C. by shaking in a water bath adjusted to 70° C. and maintained for 5 min in a water bath at 59° C.; it was then cooled and brought to pH 7.1 at 0° C. All subsequent steps were carried out at 0-4° C. Six (6) g of poly(ethylene glycol) 6000 were added per 100 ml of solution and after mixing for 15 min, the preparation was allowed to stand for 10 min and then centrifuged for 10 min at 4000×g; 8 g of poly(ethylene glycol) were then added per 100 ml of the resulting supernatant (700 ml) which was mixed and centrifuged as described above. The resulting pellet was dissolved in 40 ml of a solution containing 20 mM Tris, pH8.2, 20 mM KCl, and 2 mM dithiothreitol and applied to a column (25×120 mm) of DEAE-cellulose equilibrated with the same buffer. The column was washed with 100 ml of buffer and developed with a gradient of KCl (20-400 mM) in the same dithiothreitol/Tris buffer. […]

Test [2] has as its target T2, rat liver PFK (ATP-dependent fructose-6-phosphate kinase, EC2.7.1.11) (Rattus norvegicus, UniProt P30835).
T2 construct: Fresh livers from rats were homogenized in a homogenizer with 3 volumes of chilled buffer; from tissue; host or cells: rat liver
T2 sequence (P30835 1-780): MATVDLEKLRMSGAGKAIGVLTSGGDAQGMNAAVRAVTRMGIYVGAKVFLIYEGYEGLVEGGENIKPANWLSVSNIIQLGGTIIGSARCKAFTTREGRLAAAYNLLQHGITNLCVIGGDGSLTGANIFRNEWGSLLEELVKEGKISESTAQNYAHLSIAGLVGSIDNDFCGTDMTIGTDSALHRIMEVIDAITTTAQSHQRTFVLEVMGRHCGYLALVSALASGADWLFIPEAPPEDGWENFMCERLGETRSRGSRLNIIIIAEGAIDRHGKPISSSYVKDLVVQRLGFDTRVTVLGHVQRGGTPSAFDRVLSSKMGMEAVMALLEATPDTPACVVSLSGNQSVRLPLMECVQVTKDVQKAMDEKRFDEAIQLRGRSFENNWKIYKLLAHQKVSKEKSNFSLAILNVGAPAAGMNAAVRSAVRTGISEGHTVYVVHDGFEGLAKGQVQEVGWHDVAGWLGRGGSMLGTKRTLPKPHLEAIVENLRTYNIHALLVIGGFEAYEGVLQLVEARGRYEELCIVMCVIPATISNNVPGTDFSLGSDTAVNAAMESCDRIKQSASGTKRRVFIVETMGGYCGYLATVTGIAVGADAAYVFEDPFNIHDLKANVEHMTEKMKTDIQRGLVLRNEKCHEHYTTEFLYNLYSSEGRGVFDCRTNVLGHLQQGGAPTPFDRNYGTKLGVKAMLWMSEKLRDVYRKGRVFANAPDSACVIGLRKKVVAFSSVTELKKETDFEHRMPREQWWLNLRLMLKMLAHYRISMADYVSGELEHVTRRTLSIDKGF
Briefly: Stimulation assay of rat liver phosphofructokinase by Fructose 2,6 Pi. The format is biochemical. Particulars: in the presence of 2 mM fructose 6-phosphate and 1 mM AMP; pH 7.1, 22° C.; 3 mM ATP; FIG. 4; read-out: half-maximal effect (activation of rat liver PFK). How it is done:
ATP-dependent fructose-6-phosphate kinase (EC2.7.1.11) was purified from rat livers according to the procedures described in Reinhart and Lardy., Biochemistry, 19:1477-1484 (1980). The purification procedure includes a heat step, ammonium sulfate precipitation, and DEAE ion-exchange and gel filtration chromatography as follows:
The assay was performed at pH 7.1 and 22° C. The incubation mixture contained 100 mM KCl, 1 mM NH4Cl, 0.15 mM NADH, 50 mM Hepes buffer, 50 μg/ml aldolase, 10 μg/ml glycerol-3-phosphate dehydrogenase, 1 μg/ml triose phosphate isomerase, 5 mM MgCl2, 1 mM AMP, 2 mM fructose 6-phosphate, and 0.2 mM Pi. The reaction was initiated by adding 3 mM ATP.

Regarding `O=P(O)(O)OCC1OC(CO)(OP(=O)(O)O)C(O)C1O` (centres unmarked) [fructose 2, 6 Pi, fructose-2,6-bisphosphate], the values for the EC50 in test [1] and in test [2] were approximately 5.5 nM and approximately 40 nM, respectively.
